One test concerns the target H.s. PI(4)K (Homo sapiens, UniProt Q9UBF8). Nature of the test: H.s. PI(4)K IC50. The settings on record: read-out: (d) H.s.* PI(4)K IC50. The test is classed as biochemical.
A further test concerns the target C. parvum PI(4)K (Cryptosporidium parvum, UniProt Q5CVD3). Nature of the test: CpPI(4)K enzymatic assay (Transcreener ADP2 FP). The test is classed as biochemical. From the text: Baculovirus expression and purification of C. parvum phosphatidylinositol 4-kinase: The full-length coding sequence of C. parvum PI(4)K (cgd8_4500, 1114 amino acids) was codon-optimized for baculovirus expression, synthesized and cloned into pFastBac-HTb (Invitrogen 10584-027) in frame with the amino-terminal polyhistidine tag using the BamHI and HindIII restriction sites. Recombinant pFastBacHTb-CpPI(4)K bacmid clones were generated by site-specific transposition in E. coli DH10Bac (Invitrogen 10361-012). The bacmid sequence was confirmed by direct DNA sequencing to confirm a lack of mutations across the whole gene. The subsequent steps for bacmid isolation, transfection and selection of the recombinant viruses were performed according to the manufacturer's protocol (Bac-to-Bac system #10359, Invitrogen).
SF9 cells, cultured in […] serum-free medium, were transfected with recombinant baculovirus at 1/200 (v/v) and incubated at 27° C. for 72 h. The pellets were collected after centrifugation and re-suspended in cell lysis buffer (20 mM Tris-HCl, pH 7.5, 300 mM NaCl, 1 mM DTT, 20 mM imidazole, 0.01% Triton X-100 and 1× complete protease inhibitor cocktail without EDTA (Roche Diagnostics 04693116001)). The cell suspension was lysed by sonication and the clarified supernatant was loaded onto a 1 ml HisTrap affinity column (GE Healthcare) pre-equilibrated with buffer A (20 mM Tris-HCl, pH 7.5, 300 mM NaCl, 1 mM DTT, 20 mM Imidazole, and 1× complete protease inhibitor cocktail without EDTA). The column was washed with buffer B (buffer A containing 45 mM imidazole) and the bound protein of interest was eluted with buffer C (buffer A with 90 mM imidazole). The fractions containing CpPI(4)K were pooled, concentrated using Amicon Ultra-15 and purified by a gel-filtration column (Hi-Load 26/60 Superdex 200, GE Healthcare) equilibrated with 20 mM Tris, pH 7.5, 300 mM NaCl, 1 mM DTT and 1× protease inhibitor cocktail without EDTA. The concentrations of the purified protein (Mw 132.39 kda) was determined by using the protein molar extinction coefficient (ε280 nm=133,810 M^−1 cm^−1). Aliquots were flash frozen in liquid nitrogen and immediately stored at −80° C.
PI(4)K enzymatic Assay The CpPI(4)K enzymatic assay was performed as described earlier with a some modifications (McNamara et al., 2013). Briefly, L-α-phosphatidylinositol (Avanti Polar Lipid 840046), dissolved in 3% n-octylglucoside (Roche Diagnostics 10634425001), was used as the lipid substrate for the PI(4)K activity assay. CpPI(4)K was assayed using Transcreener ADP2 FP detection kit (BellBrook 3010) in a black, solid 384-well plate (Corning 3575). The final assay volume was 10 μl and contained 3 nM of the respective CpPI(4)K construct in 10 mM Tris, pH 7.5, 1 mM DTT, 3 μM ATP, 5 mM Mn2+, 0.05% Triton X-100 and 10 μM phosphatidylinositol/octylglucoside. The enzyme reaction was performed for 50 minutes at room temperature and was stopped by adding 10 μl of detection mix containing 1× stop buffer (50 mM HEPES, pH7.5, 400 mM NaCl, 20 mM EDTA, and 0.02% Brij-35), 2 nM AMP Alexa Fluor 633 tracer, and 20 μg ml^−1 ADP antibody. Fluorescence polarization measurements were performed on the Infinite M1000 plate reader (Tecan) with λex=635 nm and λem=680 nm (20-nm bandwidth). IC50 values were calculated using Graphpad Prism software.

The next test has as its system Cryptosporidium parvum. Nature of the test: Cytopathic effect (CPE) based assay, C. parvum-infected HCT-8 cells. It is filed as cell-based. The settings on record: HCT-8, 48 h, read-out: (b) C.p.* CPE EC50 (μM). On the procedure:
Human ileocecal colorectal adenocarcinoma cells (HCT-8 [HRT-18] ATCC, CCL-34) were maintained in T-175 flasks (Corning, 431080) in complete growth medium (RPMI-1640 medium (Gibco, 11875) supplemented with 10% heat-inactivated horse serum (Gibco, 26050), 1× MEM non-essential amino acids (Gibco, 11140), 10 mM HEPES (Gibco, 15630), 100 units/mL penicillin, and 100 units/mL streptomycin) at 37° C. and 5% CO2 in a humidified incubator. Cultures were passaged twice weekly using 10 mL of 1× Phosphate-Buffered Saline (PBS) without Ca^2+ and Mg^2+ (Gibco, 20012) for washing and 3-5 mL per T-175 flask of TrypLE Express Enzyme (Gibco, 12604) for dissociation of adherent cells.
Cryptosporidium parvum oocysts purchased from the Sterling Laboratory, University of Arizona (Iowa isolate) were purified from infected calf feces using discontinuous sucrose and cesium chloride centrifugation gradients and stored in PBS solution containing 0.01% Tween 20, 100 units/mL penicillin and 100 units/mL gentamicin.
Excystaion and infection: Excystation and infection protocols were developed following established methods with some modifications (Gut & Nelson, 1999, Upton et al., 1995, Bessoff et al., 2013). Briefly, oocysts were primed in 1 mL of 10 mM hydrochloric acid in 1× Hank's Balanced Salt Solution (HBSS) (Gibco, 14025) for 10 minutes with agitation at 1000 rpm, 37° C. on an Eppendorf thermomixer, then washed twice with 1 mL of room temperature non-acidic 1× HBSS by centrifugation at 13,000 rpm for 3 minutes at 25° C. Primed oocysts were further excysted at a concentration of 1×10^6 oocysts/μL in parasite infection medium consisting of a pre-warmed and pre-gassed 1:1 formulation of Leibovitz's L-15 medium (Gibco, 11415) and UltraCULTURE medium (Lonza, 12-725F) supplemented with 2 mM sodium taurocholate (Sigma, 86339-1), 10% heat-inactivated horse serum, and 200 μM L-ascorbic acid (Sigma, 95210) at 25° C. for 10 minutes. HCT-8 monolayer cells were infected with excysted cryptosporidium at a specified multiplicity of infection (MOI). All dilutions for subsequent assays were performed in parasite infection medium without sodium taurocholate. Pre-excysted oocysts were enumerated microscopically using a C-Chip disposable hemocytometer (NanoEnTek, DHC-N01).
Compound and assay plate preparation: Compound powders were dissolved in neat DMSO (Fisher, D4121) to 10 mM and stored at 4° C. prior to dilution into source plates. Dilutions were carried out using a Microlab STAR liquid handler (Hamilton) to obtain compound source plates containing the ten-point or eight-point three fold dilutions starting from 10 mM in duplicates. Source plates were stored at 4° C. prior to spotting into assay plates. Before administration, all compound source plates were equilibrated to room temperature. A specified volume of compounds from source plate were spotted to assay plate using an Echo Acoustic liquid handler (LABCYTE, 550) so that the final DMSO concentration was less than 0.5%. Each assay plate a specified number of DMSO-treated negative control wells and a well-studied potent active compound at 100 nM as positive control. As a quality control, all positive and negative-control wells were used to calculate a Z′-value and signal to noise ratio (S:N) for each plate.
Cryptosporidium spp are obligate-intracellular parasites that infect intestinal epithelial cells and the host cell is killed upon parasite egress. […] The loss of epithelial cells is due to both rapid parasite invasion/multiplication/egress and also pro-inflammatory immune response (Adams et al., 1994, Griffiths et al., 1994). We have observed a consistent cytopathic effect (CPE) in HCT-8 cells with C. spp infection the loss of viability of the host cells using CellTiter-Glo reagent.
Confluent HCT-8 cells in T-175 flasks were directly infected with excysted oocysts at an MOI (host to parasite) of 1:2 for C. parvum and 1:4 for C. hominis. […]

Experimental findings from patent US12018024B2, “Compounds and compositions for the treatment of cryptosporidiosis” (Novartis AG, priority 2020, dated 2024) are described below.

Structures are written as SMILES.

Chain of H.s. PI(4)K (Q9UBF8 2-816 limits assumed): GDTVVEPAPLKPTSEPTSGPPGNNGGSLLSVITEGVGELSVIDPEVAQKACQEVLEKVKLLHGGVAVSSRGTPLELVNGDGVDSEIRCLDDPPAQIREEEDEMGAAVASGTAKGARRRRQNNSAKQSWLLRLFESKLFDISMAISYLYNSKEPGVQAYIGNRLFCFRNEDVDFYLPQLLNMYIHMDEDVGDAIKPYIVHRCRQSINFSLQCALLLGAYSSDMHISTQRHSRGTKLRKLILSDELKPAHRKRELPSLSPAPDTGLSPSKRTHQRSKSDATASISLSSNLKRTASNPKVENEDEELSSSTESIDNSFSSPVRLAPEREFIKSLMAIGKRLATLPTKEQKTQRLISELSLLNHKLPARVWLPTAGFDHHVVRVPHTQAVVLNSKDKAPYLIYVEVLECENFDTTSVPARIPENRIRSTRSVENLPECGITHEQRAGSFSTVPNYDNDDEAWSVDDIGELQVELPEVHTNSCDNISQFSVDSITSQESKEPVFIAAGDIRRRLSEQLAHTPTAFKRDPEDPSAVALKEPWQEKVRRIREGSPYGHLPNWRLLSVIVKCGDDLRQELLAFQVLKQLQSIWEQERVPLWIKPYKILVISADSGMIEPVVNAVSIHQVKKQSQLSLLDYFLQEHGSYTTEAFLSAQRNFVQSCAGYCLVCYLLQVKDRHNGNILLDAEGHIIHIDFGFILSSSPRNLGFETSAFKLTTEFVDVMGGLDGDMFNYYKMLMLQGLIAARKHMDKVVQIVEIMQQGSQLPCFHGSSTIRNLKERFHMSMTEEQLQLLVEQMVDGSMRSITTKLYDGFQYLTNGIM
Chain of C. parvum PI(4)K (Q5CVD3 entry or part of it): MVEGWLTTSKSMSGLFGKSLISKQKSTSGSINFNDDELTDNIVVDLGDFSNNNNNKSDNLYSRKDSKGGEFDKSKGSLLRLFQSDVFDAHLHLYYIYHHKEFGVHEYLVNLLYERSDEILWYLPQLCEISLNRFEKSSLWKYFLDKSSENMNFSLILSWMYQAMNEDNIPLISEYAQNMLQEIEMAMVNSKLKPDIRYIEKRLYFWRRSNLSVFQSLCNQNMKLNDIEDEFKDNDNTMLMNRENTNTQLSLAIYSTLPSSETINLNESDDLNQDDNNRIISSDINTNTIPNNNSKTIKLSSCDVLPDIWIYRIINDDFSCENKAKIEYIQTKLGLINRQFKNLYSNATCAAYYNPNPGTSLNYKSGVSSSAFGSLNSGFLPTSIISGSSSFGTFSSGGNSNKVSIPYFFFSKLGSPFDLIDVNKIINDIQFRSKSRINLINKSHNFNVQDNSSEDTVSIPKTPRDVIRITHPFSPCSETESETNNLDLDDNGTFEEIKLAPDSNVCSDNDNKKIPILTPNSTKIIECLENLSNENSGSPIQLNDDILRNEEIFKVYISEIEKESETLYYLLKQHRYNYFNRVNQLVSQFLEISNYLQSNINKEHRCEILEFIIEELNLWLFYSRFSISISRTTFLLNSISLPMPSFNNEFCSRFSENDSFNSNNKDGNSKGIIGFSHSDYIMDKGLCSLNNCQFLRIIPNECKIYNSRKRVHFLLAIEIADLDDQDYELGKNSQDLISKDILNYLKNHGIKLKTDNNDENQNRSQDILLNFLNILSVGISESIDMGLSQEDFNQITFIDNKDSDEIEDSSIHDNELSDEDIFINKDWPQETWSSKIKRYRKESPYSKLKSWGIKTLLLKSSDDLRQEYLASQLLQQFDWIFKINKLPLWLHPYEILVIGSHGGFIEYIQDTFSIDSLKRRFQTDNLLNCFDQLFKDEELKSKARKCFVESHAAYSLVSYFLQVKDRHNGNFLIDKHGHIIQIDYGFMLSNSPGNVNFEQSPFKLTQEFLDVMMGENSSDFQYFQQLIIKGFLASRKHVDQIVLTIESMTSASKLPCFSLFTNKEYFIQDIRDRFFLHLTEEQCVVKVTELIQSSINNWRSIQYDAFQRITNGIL

Usually IC50 stands for the concentration that gives 50% inhibition. The term EC50 denotes the concentration needed to bring the measured effect to its halfway point. `CCOC(=O)OC(C)OC(=O)c1cc(N(C)C(=O)c2ccn3ncc(-c4ccc(C(N)=O)cc4)c3c2)ccc1Cl` (racemic) [Example 1.14, rac-1-((Ethoxycarbonyl)oxy)ethyl 5-(3-(4-carbamoylphenyl)-N-methylpyrazolo[1,5-a]pyridine-5-carboxamido)-2-chlorobenzoate]: the IC50 is greater than 1 µM on H.s. PI(4)K and 0.1 to 1 µM on C. parvum PI(4)K. For the same molecule, the EC50 in the test with Cryptosporidium parvum is greater than 1 µM.
On to `CN(C(=O)c1ccn2ncc(-c3ccc(C(N)=O)cc3)c2c1)c1ccc(Cl)c(C(=O)O)c1` [Example 1.03, 5-(3-(4-Carbamoylphenyl)-N-methylpyrazolo[1,5-a]pyridine-5-carboxamido)-2-chlorobenzoic acid], for which the concentration for half-maximal inhibition (IC50) was 0.1 to 1 µM at H.s. PI(4)K and less than 0.1 µM against C. parvum PI(4)K. The EC50 with Cryptosporidium parvum was greater than 1 µM.
In the case of `CN(C(=O)c1ccn2ncc(-c3ccc(C(N)=O)cc3)c2c1)c1ccc(Cl)c(C(=O)OCCN2CCOCC2)c1` [Example 1.08, 2-Morpholinoethyl 5-(3-(4-carbamoylphenyl)-N-methylpyrazolo[1,5-a]pyrdine-5-carboxamido)-2-chlorobenzoate], the IC50 on H.s. PI(4)K was greater than 1 µM; against C. parvum PI(4)K, less than 0.1 µM. Further, the EC50 in the test with Cryptosporidium parvum fell in the range of 0.1 to 1 µM.
The corresponding values for `CNC(=O)c1ccc(-c2cnn3ccc(C(=O)N(C)c4ccc(Cl)c(C(=O)O)c4)cc23)cc1` [Example 1.18, 2-Chloro-5-(N-methyl-3-(4-(methylcarbamoyl)phenyl)pyrazolo[1,5-a]pyridine-5-carboxamido)benzoic acid] are 0.1 to 1 µM, less than 0.1 µM and greater than 1 µM.
Consider `CNC(=O)c1ccc(-c2cnn3ccc(C(=O)N(C)c4ccc(Cl)c(C(=O)OCCN5CCOCC5)c4)cc23)cc1` [Example 1.19, 2-Morpholinoethyl 2-chloro-5-(N-methyl-3-(4-(methylcarbamoyl)phenyl)pyrazolo[1,5-a]pyridine-5-carboxamido)benzoate], for which the IC50 on H.s. PI(4)K was 0.1 to 1 µM; against C. parvum PI(4)K, less than 0.1 µM. Besides, the EC50 with Cryptosporidium parvum is 0.1 to 1 µM.
In the case of `COC(=O)c1cc(N(C)C(=O)c2ccn3ncc(-c4ccc(C(N)=O)cc4C)c3c2)ccc1Cl` [Example 1.21, Methyl 2-chloro-5-(N-methyl-3-(2-methyl-4-(carbamoyl)phenyl)pyrazolo[1,5-a]pyridine-5-carboxamido)benzoate], the figures for the IC50 at H.s. PI(4)K and against C. parvum PI(4)K were greater than 1 µM and less than 0.1 µM, respectively. Moreover, the EC50 with Cryptosporidium parvum fell in the range of 0.1 to 1 µM.
The corresponding values for `CNC(=O)c1ccc(-c2cnn3ccc(C(=O)N(C)c4ccc(Cl)c(C(=O)OC)c4)cc23)cc1C` [Example 1.22] are greater than 1 µM, 0.1 to 1 µM and greater than 1 µM.
The corresponding values for `COC(=O)c1cc(NC(=O)c2ccn3ncc(-c4ccc(C(N)=O)cc4)c3c2)ccc1Cl` [Example 1.23, Methyl 5-(3-(4-carbamoylphenyl)pyrazolo[1,5-a]pyridine-5-carboxamido)-2-chlorobenzoate] are greater than 1 µM, greater than 1 µM and greater than 1 µM.
In the case of `CNC(=O)c1ccc(-c2cnn3ccc(C(=O)Nc4ccc(Cl)c(C(=O)OC)c4)cc23)cc1` [Example 1.24, Methyl 2-chloro-5-(3-(4-(methylcarbamoyl)phenyl)pyrazolo[1,5-a]pyridine-5-carboxamido)benzoate], the IC50 on H.s. PI(4)K and against C. parvum PI(4)K was greater than 1 µM each time. Further, the EC50 in the test with Cryptosporidium parvum was greater than 1 µM.
On to `COC(=O)c1cc(N(C)C(=O)c2ccn3ncc(-c4ccc(C(N)=O)cc4)c3c2)ccc1OC(F)(F)F` [Example 1.25, Methyl 5-(3-(4-carbamoylphenyl)-N-methylpyrazolo[1,5-a]pyridine-5-carboxamido)-2-(trifluoromethoxy)benzoate], for which the IC50 on H.s. PI(4)K was greater than 1 µM; against C. parvum PI(4)K it was less than 0.1 µM. Also, the EC50 in the test on Cryptosporidium parvum was in the range of 0.1 to 1 µM.
For `COC(=O)c1cc(N(C)C(=O)c2ccn3ncc(-c4ccc(C(N)=O)cc4)c3c2)ccc1C#N` [Example 1.27, Methyl 5-(3-(4-carbamoylphenyl)-N-methylpyrazolo[1,5-a]pyridine-5-carboxamido)-2-cyanobenzoate], the half-inhibitory concentration (IC50) at H.s. PI(4)K is greater than 1 µM; on C. parvum PI(4)K, less than 0.1 µM. Further, in the test on Cryptosporidium parvum, the EC50 was less than 0.1 µM.
Regarding `CNC(=O)c1ccc(-c2cnc3cnc(C(=O)N(C)c4ccc(Cl)c(C(=O)OC)c4)cn23)cc1` [Example 2.1, Methyl 2-chloro-5-(N-methyl-3-(4-(methylcarbamoyl)phenyl)imidazo[1,2-a]pyrazine-6-carboxamido)benzoate], the IC50 is greater than 1 µM at H.s. PI(4)K and less than 0.1 µM against C. parvum PI(4)K. Also, the half-maximal effective concentration (EC50) in the test with Cryptosporidium parvum lay in the range of 0.1 to 1 µM.
